Measurements taken from PMC4516937 (Toxins, 2015).
pIC50: −log10 of the molar value.

Biological target: T1, OsUGT79 (Oryza sativa, UniProt Q7XT97)
T1 construct: gene UGT79
T1 sequence (Q7XT97 1-466): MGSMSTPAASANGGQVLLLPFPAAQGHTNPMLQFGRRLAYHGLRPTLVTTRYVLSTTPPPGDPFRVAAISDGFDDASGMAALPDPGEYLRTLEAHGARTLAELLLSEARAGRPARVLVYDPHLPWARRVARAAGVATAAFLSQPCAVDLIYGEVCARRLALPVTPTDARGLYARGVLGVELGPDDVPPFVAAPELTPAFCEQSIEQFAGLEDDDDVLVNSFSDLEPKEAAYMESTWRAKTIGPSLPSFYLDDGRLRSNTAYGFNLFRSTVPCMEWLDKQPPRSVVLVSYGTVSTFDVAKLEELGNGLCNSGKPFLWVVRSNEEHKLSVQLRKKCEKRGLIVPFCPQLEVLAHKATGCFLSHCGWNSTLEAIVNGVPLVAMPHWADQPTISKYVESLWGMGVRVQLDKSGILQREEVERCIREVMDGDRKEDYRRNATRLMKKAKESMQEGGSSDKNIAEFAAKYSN
Assay: glucosylation assay of purified recombinant enzyme with HPLC-MS/MS ([…] DON/[…] UDP-glucose)
Format: biochemical

SMILES: O=c1ccn([C@@H]2O[C@H](COP(=O)(O)OP(=O)(O)O)[C@@H](O)[C@H]2O)c(=O)[nH]1 [UDP]
- pIC50: ~2.82
